Results from patent publication US20020169101A1, “Treatment of sexual dysfunction” (priority 1999, published 2002).
Like-named read-outs stand apart in the source and are kept apart here.

Columns and labels:
human NMB receptor (BB1) = target: T1, human NMB receptor (BB1) (Homo sapiens, UniProt P28336); test: BB1 binding assay ([125I][Tyr4]bombesin displacement, CHO-K1 membranes); settings: for Ki: Table 1, human NMB receptor binding affinity, Ki from IC50 by Cheng-Prusoff, read-out: NMB Ki
T1 construct: expressed in transfected cells; membranes prepared from the cells
T1 sequence (P28336 whole entry): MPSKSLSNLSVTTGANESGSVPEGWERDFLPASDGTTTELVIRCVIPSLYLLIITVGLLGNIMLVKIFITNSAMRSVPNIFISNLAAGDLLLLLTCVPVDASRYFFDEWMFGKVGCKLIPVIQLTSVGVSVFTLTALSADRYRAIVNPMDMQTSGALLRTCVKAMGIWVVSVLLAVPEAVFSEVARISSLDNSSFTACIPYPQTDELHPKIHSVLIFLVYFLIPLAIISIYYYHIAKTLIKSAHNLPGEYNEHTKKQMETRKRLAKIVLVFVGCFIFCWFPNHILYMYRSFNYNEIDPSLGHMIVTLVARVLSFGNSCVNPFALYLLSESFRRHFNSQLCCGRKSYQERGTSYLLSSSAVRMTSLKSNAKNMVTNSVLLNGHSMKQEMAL
Protocol: (§1) In the following experiments, measurement of BB1 and BB2 binding was as follows. CHO-K1 cells stably expressing cloned human NMB (for (BB1 assay) and GRP receptors (for BB2 assay) were routinely grown in Ham's F12 culture medium supplemented with 10% foetal calf serum and 2 mM glutamine. For binding experiments, cells were harvested by trypsinization, and stored frozen at −70° C. in Ham's F12 culture medium containing 5% DMSO until required. On the day of use, cells were thawed rapidly, diluted with an excess of culture medium, and centrifuged for 5 minutes at 2000 g. Cells were resuspended in 50 mM Tris-HCl assay buffer (pH 7.4 at 21° C., containing 0.02% BSA, 40 μg/mL bacitracin, 2 μg/mL chymostatin, 4 μg/mL leupeptin, and 2 μM phosphoramidon), counted, and polytronned (setting 5, 10 sec) before centrifuging for 10 minutes at 28,000 g. The final pellet was resuspended in assay buffer to a final cell concentration of 1.5×10^5/mL. For binding assays, […] aliquots of membranes were incubated with [^125I][Tyr^4]bombesin (<0.1 nM) in the presence and absence of test compounds (final assay volume 250 μL) for 60 minutes and 90 minutes for NMB and GRP receptors, respectively. Nonspecific binding was defined by 1 μM bombesin. Assays were terminated by rapid filtration under vacuum onto Whatman GF/C filters presoaked in 0.2% PEI for >2 hours, and washed 50 mM Tris-HCl (pH 6.9 at 21° C.; 6×1 mL). Radioactivity bound was determined using a gamma counter.
(§2) All competition data was analysed using nonlinear regression utilizing iterative curve-plotting procedures in Prism® (GraphPad Software Inc., San Diego, USA). IC50 values were corrected to Ki values using the Cheng-Prusoff equation (Cheng Y., Prusoff W. H., Biochem. Pharmacol. 22: 3099-3108, 1973). obtained are listed in Table 1.

human GRP receptor (BB2) = target: T2, human GRP receptor (BB2) (Homo sapiens, UniProt P30550); test: BB2 binding assay ([125I][Tyr4]bombesin displacement, CHO-K1 membranes); settings: for Ki: Table 1, human GRP receptor binding affinity, Ki from IC50 by Cheng-Prusoff, read-out: GRP Kj
T2 construct: expressed in transfected cells; membranes prepared from the cells
T2 sequence (P30550 whole entry): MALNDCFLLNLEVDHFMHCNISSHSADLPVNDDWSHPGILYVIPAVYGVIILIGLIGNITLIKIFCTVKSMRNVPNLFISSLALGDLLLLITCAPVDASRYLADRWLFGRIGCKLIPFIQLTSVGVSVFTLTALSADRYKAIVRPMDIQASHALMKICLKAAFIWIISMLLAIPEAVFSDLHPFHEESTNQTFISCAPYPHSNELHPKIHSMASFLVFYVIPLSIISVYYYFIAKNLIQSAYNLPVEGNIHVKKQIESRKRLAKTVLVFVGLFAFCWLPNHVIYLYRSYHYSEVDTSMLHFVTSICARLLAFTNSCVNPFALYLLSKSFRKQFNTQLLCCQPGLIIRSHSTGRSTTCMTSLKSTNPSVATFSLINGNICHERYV
Protocol: as §1, §2

[1] = Table 3, N-acyl derivatives of Intermediate III-7

Compound	IC50 (human GRP receptor (BB2); [1])	IC50 (human NMB receptor (BB1); [1])	also measured
COc1ccc(C2(CNC(=O)[C@](C)(Cc3ccccc3)Nc3nc(-c4ccc([N+](=O)[O-])cc4)co3)CCCCC2)nc1 [Example 12, (S)-N-[1-(5-Methoxy-pyridin-2-yl)-cyclohexylmethyl]-2-methyl-2-[4-(4-nitro-phenyl)-oxazol-2-ylamino]-3-phenyl-propionamide]			Ki (human NMB receptor (BB1)): 0.016 µM; Ki (human GRP receptor (BB2)): 2.82 µM
C[C@@](Cc1c[nH]c2ccccc12)(NCCc1ccccc1)C(=O)NCC1(c2ccccn2)CCCCC1 [Example 25, (S)-3-(1H-Indol-3-yl)-2-methyl-2-phenylethylamino-N-(1-pyridin-2-yl-cyclohexylmethyl)-propionamide]			Ki (human NMB receptor (BB1)): 0.616 µM; Ki (human GRP receptor (BB2)): 2.62 µM
C[C@@](Cc1c[nH]c2ccccc12)(NC(=O)c1ccccc1)C(=O)NCC1(c2ccccn2)CCCCC1 [Example 32, N—{(S)-2-(1H-Indol-3-yl)-1-methyl-1-[(1-pyridin-2-yl-cyclohexylmethyl)-carbamoyl]-ethyl}-benzamide]	> 10 µM		
Cc1ccc(C(=O)N[C@@](C)(Cc2c[nH]c3ccccc23)C(=O)NCC2(c3ccccn3)CCCCC2)cc1 [Example 33, N—{(S)-2-(1H-Indol-3-yl)-1-methyl-1-[(1-pyridin-2-yl-cyclohexylmethyl)-carbamoyl]-ethyl}-4-methyl-benzamide]	> 10 µM		
C[C@@](Cc1c[nH]c2ccccc12)(NC(=O)c1ccc(Cl)cc1)C(=O)NCC1(c2ccccn2)CCCCC1 [Example 34, 4-Chloro-N—{(S)-2-(1H-indol-3-yl)-1-methyl-1-[(1-pyridin-2-yl-cyclohexyl-methyl)-carbamoyl]-ethyl}-benzamide]	> 10 µM	1.35 µM	
COc1ccc(C(=O)N[C@@](C)(Cc2c[nH]c3ccccc23)C(=O)NCC2(c3ccccn3)CCCCC2)cc1 [Example 35, N—{(S)-2-(1H-Indol-3-yl)-1-methyl-1-[(1-pyridin-2-yl-cyclohexylmethyl)-carbamoyl]-ethyl}-4-methoxy-benzamide]	> 10 µM	2.88 µM	
C[C@@](Cc1c[nH]c2ccccc12)(NC(=O)c1ccc([N+](=O)[O-])cc1)C(=O)NCC1(c2ccccn2)CCCCC1 [Example 36, N—{(S)-2-(1H-Indol-3-yl)-1-methyl-1-[(1-pyridin-2-yl-cyclohexylmethyl)-carbamoyl]-ethyl}-4-nitro-benzamide]	> 10 µM	0.343 µM	
C[C@@](Cc1c[nH]c2ccccc12)(NC(=O)c1ccc(S(C)(=O)=O)cc1)C(=O)NCC1(c2ccccn2)CCCCC1 [Example 37, N—{(S)-2-(1H-Indol-3-yl)-1-methyl-1-[(1-pyridin-2-yl-cyclohexylmethyl)-carbamoyl]-ethyl}-4-methanesulfonyl-benzamide]	> 10 µM	2.27 µM	
C[C@@](Cc1c[nH]c2ccccc12)(NC(=O)c1cccc(C#N)c1)C(=O)NCC1(c2ccccn2)CCCCC1 [Example 38, 3-Cyano-N—{(S)-2-(1H-indol-3-yl)-1-methyl-1-[(1-pyridin-2-yl-cyclohexylmethyl)-carbamoyl]-ethyl}-benzamide]	> 10 µM	2.04 µM	
CC(Cc1c[nH]c2ccccc12)(NS(=O)(=O)c1cc(Cl)sc1Cl)C(=O)NCC1(c2ccccn2)CCCCC1 (stereo not shown) [Example 157]			IC50 (human GRP receptor (BB2)): > 10 µM
C[C@@](Cc1c[nH]c2ccccc12)(NS(=O)(=O)c1cnc(Cl)c(Br)c1)C(=O)NCC1(c2ccccn2)CCCCC1 [Example 161]			IC50 (human NMB receptor (BB1)): 0.187 µM
C[C@@](Cc1c[nH]c2ccccc12)(NS(=O)(=O)c1ccc([N+](=O)[O-])cc1[N+](=O)[O-])C(=O)NCC1(c2ccccn2)CCCCC1 [Example 162]			IC50 (human NMB receptor (BB1)): 0.475 µM
C[C@@](Cc1c[nH]c2ccccc12)(NS(=O)(=O)c1ccc(S(C)(=O)=O)cc1)C(=O)NCC1(c2ccccn2)CCCCC1 [Example 163]			IC50 (human NMB receptor (BB1)): 1.04 µM
CC(C)(C)c1ccc(S(=O)(=O)N[C@@](C)(Cc2c[nH]c3ccccc23)C(=O)NCC2(c3ccccn3)CCCCC2)cc1 [Example 164]			IC50 (human NMB receptor (BB1)): 0.406 µM
Cc1cc(S(=O)(=O)N[C@@](C)(Cc2c[nH]c3ccccc23)C(=O)NCC2(c3ccccn3)CCCCC2)c(Cl)cc1Cl [Example 165]			IC50 (human NMB receptor (BB1)): 0.172 µM
C[C@@](Cc1c[nH]c2ccccc12)(NS(=O)(=O)c1ccc(Cl)c(C(F)(F)F)c1)C(=O)NCC1(c2ccccn2)CCCCC1 [Example 166]			IC50 (human NMB receptor (BB1)): 0.627 µM
CCCCc1ccc(S(=O)(=O)N[C@@](C)(Cc2c[nH]c3ccccc23)C(=O)NCC2(c3ccccn3)CCCCC2)cc1 [Example 168]			IC50 (human NMB receptor (BB1)): 0.492 µM
Dimethylamino-N—{(S)-2-(1H-indol-3-yl)-1-methyl-1-[(1-pyridin-2-yl-cyclohexyl-methyl)-carbamoyl]-ethyl}-benzamide [Example 42]	> 10 µM		

The next lines start with results.

IC50 (human GRP receptor (BB2); [1])	IC50 (human NMB receptor (BB1); [1])	Compound	also measured
> 10 µM	1.27 µM	C[C@@](Cc1c[nH]c2ccccc12)(NC(=O)c1cccc(Cl)c1)C(=O)NCC1(c2ccccn2)CCCCC1 [Example 39, 3-Chloro-N—{(S)-2-(1H-indol-3-yl)-1-methyl-1-[(1-pyridin-2-yl-cyclohexyl-methyl)-carbamoyl]-ethyl}-benzamide]	
> 10 µM	2.86 µM	COc1cccc(C(=O)N[C@@](C)(Cc2c[nH]c3ccccc23)C(=O)NCC2(c3ccccn3)CCCCC2)c1 [Example 40, N—{(S)-2-(1H-Indol-3-yl)-1-methyl-1-[(1-pyridin-2-yl-cyclohexylmethyl)-carbamoyl]-ethyl}-3-methoxy-benzamide]	
> 10 µM	3.05 µM	C[C@@](Cc1c[nH]c2ccccc12)(NC(=O)c1cccc(S(C)(=O)=O)c1)C(=O)NCC1(c2ccccn2)CCCCC1 [Example 41, N—{(S)-2-(1H-Indol-3-yl)-1-methyl-1-[(1-pyridin-2-yl-cyclohexylmethyl)-carbamoyl]-ethyl}-3-methanesulfonyl-benzamide]	
> 10 µM	2.35 µM	Cc1cccc(C(=O)N[C@@](C)(Cc2c[nH]c3ccccc23)C(=O)NCC2(c3ccccn3)CCCCC2)c1 [Example 43, N—{(S)-2-(1H-Indol-3-yl)-1-methyl-1-[(1-pyridin-2-yl-cyclohexylmethyl)-carbamoyl]-ethyl}-3-methyl-benzamide]	
> 10 µM	3.23 µM	C[C@@](Cc1c[nH]c2ccccc12)(NC(=O)c1ccccc1Cl)C(=O)NCC1(c2ccccn2)CCCCC1 [Example 44, 2-Chloro-N—{(S)-2-(1H-indol-3-yl)-1-methyl-1-[(1-pyridin-2-yl-cyclohexyl-methyl)-carbamoyl]-ethyl}-benzamide]	
> 10 µM	4.58 µM	C[C@@](Cc1c[nH]c2ccccc12)(NC(=O)c1ccccc1[N+](=O)[O-])C(=O)NCC1(c2ccccn2)CCCCC1 [Example 45, N—{(S)-2-(1H-Indol-3-yl)-1-methyl-1-[(1-pyridin-2-yl-cyclohexylmethyl)-carbamoyl]-ethyl}-2-nitro-benzamide]	
> 10 µM	2.56 µM	COc1ccccc1C(=O)N[C@@](C)(Cc1c[nH]c2ccccc12)C(=O)NCC1(c2ccccn2)CCCCC1 [Example 46, N—{(S)-2-(1H-Indol-3-yl)-1-methyl-1-[(1-pyridin-2-yl-cyclohexylmethyl)-carbamoyl]-ethyl}-2-methoxy-benzamide]	
> 10 µM	3.28 µM	Cc1ccccc1C(=O)N[C@@](C)(Cc1c[nH]c2ccccc12)C(=O)NCC1(c2ccccn2)CCCCC1 [Example 47, N—{(S)-2-(1H-Indol-3-yl)-1-methyl-1-[(1-pyridin-2-yl-cyclohexylmethyl)-carbamoyl]-ethyl}-2-methyl-benzamide]	
> 10 µM	3.95 µM	C[C@@](Cc1c[nH]c2ccccc12)(NC(=O)c1ccccc1F)C(=O)NCC1(c2ccccn2)CCCCC1 [Example 49, 2-Fluoro-N—{(S)-2-(1H-indol-3-yl)-1-methyl-1-[(1-pyridin-2-yl-cyclohexylmethyl)-carbamoyl]-ethyl}-benzamide]	
> 10 µM	0.944 µM	Cc1ccc(CC(=O)N[C@@](C)(Cc2c[nH]c3ccccc23)C(=O)NCC2(c3ccccn3)CCCCC2)cc1 [Example 50, (S)-3-(1H-Indol-3-yl)-2-methyl-N-(1-pyridin-2-yl-cyclohexylmethyl)-2-(2-p-tolyl-ethanoylamino)-propionamide]	
> 10 µM	3.13 µM	C[C@@](Cc1c[nH]c2ccccc12)(NC(=O)Cc1ccc(O)cc1)C(=O)NCC1(c2ccccn2)CCCCC1 [Example 52, (S)-2-[2-(4-Hydroxy-phenyl)-ethanoylamino]-3-(1H-indol-3-yl)-2-methyl-N-(1-pyridin-2-yl-cyclohexylmethyl)-propionamide]	
> 10 µM	1.44 µM	C[C@@](Cc1c[nH]c2ccccc12)(NC(=O)Cc1cccc(O)c1)C(=O)NCC1(c2ccccn2)CCCCC1 [Example 53, (S)-2-[2-(3-Hydroxy-phenyl)-ethanoylamino]-3-(1H-indol-3-yl)-2-methyl-N-(1-pyridin-2-yl-cyclohexylmethyl)-propionamide]	
